Data on one compound can be found in the NIST ThermoML archive (doi:10.1021/je900346t).

Numbers after ± are expanded uncertainties.

For series [1] the following is noted: Crystal; DTA.
A short description of series [2]: Molar enthalpy of transition or fusion. The following applies: Crystal; DSC.

As to `CCCCCCCCCCCCCCCc1cccc(O)c1` [3-pentadecylphenol], the Normal melting temperature in series [1] was found to be 49.20 ± 1.1 °C. In series [2], the “Molar enthalpy of transition or fusion” value was 9.1 ± 0.196 kcal/mol.
